Assay results published in patent US10894036B2, “Use of marizomib for the treatment of central nervous system (CNS) cancers” (Celgene International II Sàrl, priority 2016, dated 2021).

Experiment: Phase 1/2 MRZ + BEV and MRZ monotherapy in recurrent G4 MG: adverse events, DLT
Conditions: for Ataxia: Treatment Related Grade ≥3 AE, # patients / Confusional State: Treatment Related Grade ≥3 AE, # patients / Delusion: Treatment Related Grade ≥3 AE, # patients / Dyspnea: Treatment Related Grade ≥3 AE, # patients / Embolism: Treatment Related Grade ≥3 AE, # patients / Fall: Treatment Related Grade ≥3 AE, # patients / Fatigue: Treatment Related Grade ≥3 AE, # patients / Hallucination: Treatment Related Grade ≥3 AE, # patients / Headache: Treatment Related Grade ≥3 AE, # patients / Hypertension: Treatment Related Grade ≥3 AE, # patients / Hyponatremia: Treatment Related Grade ≥3 AE, # patients / Insomnia: Treatment Related Grade ≥3 AE, # patients / Intracranial Hemorrhage: Treatment Related Grade ≥3 AE, # patients / Optic Nerve Disorder: Treatment Related Grade ≥3 AE, # patients / Proteinuria: Treatment Related Grade ≥3 AE, # patients: attributed to labelled agent
[1] = MRZ 0.7 mg/m^2 + BEV, Cohort 2, N = 3
[2] = MRZ 0.7 mg/m^2 Cohort 2 (N = 3)
[3] = MRZ 0.8 mg/m^2 + BEV N = 27, MRZ 0.8 mg/m^2 monotherapy N = 30
[4] = MRZ 0.8 mg/m^2 + BEV, Cohorts 3 & 4, N = 27
[5] = MRZ 0.8 mg/m^2 + BEV, N = 27, related to the labelled drug
[6] = MRZ 0.8 mg/m^2 Cohorts 3 & 4 (N = 27)
[7] = MRZ 0.8 mg/m^2 monotherapy, N = 30

Protocol: The clinical trial was a Phase 1, dose-escalation (3+3 design) followed by dose-expansion at recommended Phase 2 Dose (RP2D).
The drugs were infused on 28-Day Cycles. Tumor response is assessed every other cycle by RANO criteria.
The safety data will be presented in individual listings and summary tables, including frequency tables for adverse events and frequency and shift tables for laboratory variables. The safety population will be all subjects who received at least one dose of either study drug in Phase 1 or MRZ in Phase 2.

SMILES: C[C@@]12OC(=O)[C@]1([C@@H](O)[C@@H]1C=CCCC1)NC(=O)[C@@H]2CCCl [marizomib]
- Confusional State, Treatment Related Grade ≥3 AE, patients [1]: 0
- Delusion, Treatment Related Grade ≥3 AE, patients [1]: 0
- Dyspnea, Treatment Related Grade ≥3 AE, patients [1]: 0
- Embolism, Treatment Related Grade ≥3 AE, patients [1]: 0
- Fall, Treatment Related Grade ≥3 AE, patients [1]: 0
- Fatigue, Treatment Related Grade ≥3 AE, patients [1]: 0
- Hallucination, Treatment Related Grade ≥3 AE, patients [1]: 0
- Headache, Treatment Related Grade ≥3 AE, patients [1]: 0
- Hypertension, Treatment Related Grade ≥3 AE, patients [1]: 0
- Hyponatremia, Treatment Related Grade ≥3 AE, patients [1]: 0
- Insomnia, Treatment Related Grade ≥3 AE, patients [1]: 0
- Intracranial Hemorrhage, Treatment Related Grade ≥3 AE, patients [1]: 0
- Optic Nerve Disorder, Treatment Related Grade ≥3 AE, patients [1]: 0
- Proteinuria, Treatment Related Grade ≥3 AE, patients [1]: 0
- Ataxia, Treatment Related Grade ≥3 AE, patients (MRZ 0.7 mg/m^2 + BEV, Cohort 2, N = 3, related to the labelled drug): 0
- Ataxia: Treatment Related Grade ≥3 AE, # patients [2]: 0
- Confusional State: Treatment Related Grade ≥3 AE, # patients [2]: 0
- Delusion: Treatment Related Grade ≥3 AE, # patients [2]: 0
- Dyspnea: Treatment Related Grade ≥3 AE, # patients [2]: 0
- Embolism: Treatment Related Grade ≥3 AE, # patients [2]: 0
- Fall: Treatment Related Grade ≥3 AE, # patients [2]: 0
- Fatigue: Treatment Related Grade ≥3 AE, # patients [2]: 0
- Hallucination: Treatment Related Grade ≥3 AE, # patients [2]: 0
- Headache: Treatment Related Grade ≥3 AE, # patients [2]: 0
- Hypertension: Treatment Related Grade ≥3 AE, # patients [2]: 0
- Hyponatremia: Treatment Related Grade ≥3 AE, # patients [2]: 0
- Insomnia: Treatment Related Grade ≥3 AE, # patients [2]: 0
- Intracranial Hemorrhage: Treatment Related Grade ≥3 AE, # patients [2]: 0
- Optic Nerve Disorder: Treatment Related Grade ≥3 AE, # patients [2]: 0
- Proteinuria: Treatment Related Grade ≥3 AE, # patients [2]: 0
- Fatigue, treatment-related AE, patients (MRZ 0.8 mg/m^2 + BEV Cohorts 3 & 4, N = 27, related to the labelled drug (MRZ + BEV = related to both)): 19 (70.4%)
- Patients with at Least One TEAE (MRZ 0.8 mg/m^2 + BEV Cohorts 3 & 4 N = 27, MRZ 0.8 mg/m^2 monotherapy N = 30): 29 (96.7%) ^[1]
- Anaemia, adverse event, patients [3]: 6 (20.0%)
- Ataxia, adverse event, patients [3]: 6 (20.0%)
- Confusional state, adverse event, patients [3]: 7 (23.3%)
- Constipation, adverse event, patients [3]: 9 (30.0%)
- Diarrhoea, adverse event, patients [3]: 7 (23.3%)
- Dizziness, adverse event, patients [3]: 5 (16.7%)
- Dysarthria, adverse event, patients [3]: 5 (16.7%)
- Dysphonia, adverse event, patients [3]: 1 (3.3%)
- Epistaxis, adverse event, patients [3]: 2 (6.7%)
- Fall, adverse event, patients [3]: 4 (13.3%)
- Fatigue, adverse event, patients [3]: 19 (63.3%)
- Hallucination, adverse event, patients [3]: 12 (40.0%)
- Headache, adverse event, patients [3]: 12 (40.0%)
- Hyperglycaemia, adverse event, patients [3]: 8 (27.6%)
- Hypertension, adverse event, patients [3]: 4 (13.3%)
- Hypokalemia, adverse event, patients [3]: 8 (27.6%)
- Infusion site pain, adverse event, patients [3]: 3 (10.0%)
- Insomnia, adverse event, patients [3]: 14 (46.7%)
- Nausea, adverse event, patients [3]: 11 (36.7%)
- Platelet count decreased, adverse event, patients [3]: 7 (23.3%)
- Vomiting, adverse event, patients [3]: 9 (30.0%)
- Confusional State, Treatment Related Grade ≥3 AE, patients [4]: 0
- Delusion, Treatment Related Grade ≥3 AE, patients [4]: 1
- Dyspnea, Treatment Related Grade ≥3 AE, patients [4]: 1
- Embolism, Treatment Related Grade ≥3 AE, patients [4]: 0
- Fall, Treatment Related Grade ≥3 AE, patients [4]: 1
- Fatigue, Treatment Related Grade ≥3 AE, patients [4]: 1
- Hallucination, Treatment Related Grade ≥3 AE, patients [4]: 1
- Headache, Treatment Related Grade ≥3 AE, patients [4]: 3
- Hypertension, Treatment Related Grade ≥3 AE, patients [4]: 0
- Hyponatremia, Treatment Related Grade ≥3 AE, patients [4]: 1
- Insomnia, Treatment Related Grade ≥3 AE, patients [4]: 1
- Intracranial Hemorrhage, Treatment Related Grade ≥3 AE, patients [4]: 0
- Optic Nerve Disorder, Treatment Related Grade ≥3 AE, patients [4]: 0
- Proteinuria, Treatment Related Grade ≥3 AE, patients [4]: 0
- Ataxia, Treatment Related Grade ≥3 AE, patients (MRZ 0.8 mg/m^2 + BEV, Cohorts 3 & 4, N = 27, related to the labelled drug): 1
- Anaemia, treatment-related AE, patients [5]: 5 (18.5%)
- Ataxia, treatment-related AE, patients [5]: 7 (25.9%)
- Confusional state, treatment-related AE, patients [5]: 7 (25.9%)
- Constipation, treatment-related AE, patients [5]: 5 (18.5%)
- Diarrhoea, treatment-related AE, patients [5]: 8 (29.6%)
- Dizziness, treatment-related AE, patients [5]: 8 (29.6%)
- Dysphonia, treatment-related AE, patients [5]: 1 (3.7%)
- Epistaxis, treatment-related AE, patients [5]: 0 (0.0%)
- Fall, treatment-related AE, patients [5]: 3 (11.1%)
- Hallucination, treatment-related AE, patients [5]: 12 (44.4%)
- Headache, treatment-related AE, patients [5]: 12 (44.4%)
- Hypertension, treatment-related AE, patients [5]: 1 (3.7%)
- Infusion site pain, treatment-related AE, patients [5]: 4 (14.8%)
- Muscular weakness, treatment-related AE, patients [5]: 3 (11.1%)
- Nausea, treatment-related AE, patients [5]: 17 (63.0%)
- Platelet count decreased, treatment-related AE, patients [5]: 2 (7.4%)
- Stomatitis, treatment-related AE, patients [5]: 3 (11.1%)
- Upper-airway cough syndrome, treatment-related AE, patients [5]: 0 (0.0%)
- Vomiting, treatment-related AE, patients [5]: 15 (55.6%)
- Ataxia: Treatment Related Grade ≥3 AE, # patients [6]: 1
- Confusional State: Treatment Related Grade ≥3 AE, # patients [6]: 0
- Delusion: Treatment Related Grade ≥3 AE, # patients [6]: 1
- Dyspnea: Treatment Related Grade ≥3 AE, # patients [6]: 1
- Embolism: Treatment Related Grade ≥3 AE, # patients [6]: 0
- Fall: Treatment Related Grade ≥3 AE, # patients [6]: 1
- Fatigue: Treatment Related Grade ≥3 AE, # patients [6]: 1
- Hallucination: Treatment Related Grade ≥3 AE, # patients [6]: 1
- Headache: Treatment Related Grade ≥3 AE, # patients [6]: 3
- Hypertension: Treatment Related Grade ≥3 AE, # patients [6]: 0
- Hyponatremia: Treatment Related Grade ≥3 AE, # patients [6]: 1
- Insomnia: Treatment Related Grade ≥3 AE, # patients [6]: 1
- Intracranial Hemorrhage: Treatment Related Grade ≥3 AE, # patients [6]: 0
- Optic Nerve Disorder: Treatment Related Grade ≥3 AE, # patients [6]: 0
- Proteinuria: Treatment Related Grade ≥3 AE, # patients [6]: 0
- Anaemia, MRZ related AE, patients [7]: 5 (16.7%
- Ataxia, MRZ related AE, patients [7]: 5 (16.7%)
- Confusional state, MRZ related AE, patients [7]: 6 (20.0%)
- Constipation, MRZ related AE, patients [7]: 6 (20.0%)
- Diarrhoea, MRZ related AE, patients [7]: 7 (23.3)
- Dizziness, MRZ related AE, patients [7]: 3 (10.0%)
- Dysphonia, MRZ related AE, patients [7]: 0
- Epistaxis, MRZ related AE, patients [7]: 1 (3.3%)
- Fall, MRZ related AE, patients [7]: 1 (3.3%)
- Fatigue, MRZ related AE, patients [7]: 18 (60.0%)
- Hallucination, MRZ related AE, patients [7]: 11 (36.7%)
- Headache, MRZ related AE, patients [7]: 11 (36.7%)
- Infusion site pain, MRZ related AE, patients [7]: 2 (6.7%)
- Muscular weakness, MRZ related AE, patients [7]: 0
- Nausea, MRZ related AE, patients [7]: 9 (30.0%)
- Platelet count decreased, MRZ related AE, patients [7]: 0
- Stomatitis, MRZ related AE, patients [7]: 0
- Upper-airway cough syndrome, MRZ related AE, patients [7]: 0
- Vomiting, MRZ related AE, patients [7]: 7 (23.3)
